Consider ten molecules from patent US20230265116A1, “DEGRADATION OF (EGFR) BY CONJUGATION OF EGFR INHIBITORS WITH E3 LIGASE LIGAND AND METHODS OF USE” (BEIGENE, LTD., priority 2020, published 2023).

Each structure is given as a SMILES string.

What all share (format): cell-based
In assay [1] the test system is EGFR Del19/T790M/C797S (BaF3-DTC cells). The assay can be described thus: EGFR degradation HTRF assay, BaF3-DTC cells. To be noted: 16h treatment; for DTC Dmax (%): maximum percentage of degradation; for DC50: read-out: DTC DC50. In short, it runs like this: (§1)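 EGFR remaining after a 16 h, 37 °C exposure (8 doses, 5-fold steps from 10 uM final, 0.2% DMSO) was quantified by HTRF antibodies in cell lysate. Percent inhibition relative to DMSO control was fitted by four-parameter logistic to give DC50; Dmax denotes maximal degradation.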
A general note: TR-FRET usually uses a lanthanide donor and a delayed reading to cut background.

Assay [2] concerns the target T1, EGFR L858R/T790M/C797S (BaF3-LTC cells) (Homo sapiens, UniProt P00533, C797S/L858R/T790M).
T1 construct: expressed in transfected cells; host or cells: BaF3
The assay can be described thus: EGFR degradation HTRF assay, BaF3-LTC cells. To be noted: BaF3-LTC, 16h treatment; for Dmax: maximum percentage of degradation, read-out: LTC Dmax (%); for DC50: read-out: LTC DC50. In short, it runs like this: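 Cells treated 16 h at 37 °C, 5% CO2 in medium with 0.2% DMSO; top final concentration 10 uM, 5-fold dilution, 8 doses. Lysates read by HTRF (665/620 nm); degradation % versus DMSO high control, DC50 from four-parameter fit, Dmax as maximal degradation.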

Assay [3] deals with T2, EGFR L858R/T790M (H1975-clone #36, homozygous) (Homo sapiens, UniProt P00533, L858R/T790M).
T2 construct: designed to specifically target WT EGFR but preserve the L858R/T790M copy; host or cells: H1975-clone #36
The assay can be described thus: EGFR degradation HTRF assay, H1975-clone #36 cells. The following applies: H1975 #36, 16h treatment; for Dmax: NCI-H1975, maximum percentage of degradation. An outline of the steps:
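H1975 clone #36, made homozygous for L858R/T790M EGFR by knockout of the WT allele, treated 16 h at 37 °C with compound in 0.2% DMSO medium. Eight doses from 10 uM, 5-fold dilutions. EGFR measured by HTRF in lysates. DC50 and Dmax fitted against DMSO controls.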

For another assay, the target named is T3, EGFR (HCC827 cells) (Homo sapiens, UniProt P00533, DEL746-750).
T3 construct: endogenous in cells; host or cells: HCC827
The assay can be described thus: EGFR degradation HTRF assay, HCC827 cells. The following applies: HCC827, 16h treatment; for Dmax: maximum percentage of degradation. An outline of the steps:
as §1

T3 sequence (P00533 with tags, fused parts or gaps DEL746-750): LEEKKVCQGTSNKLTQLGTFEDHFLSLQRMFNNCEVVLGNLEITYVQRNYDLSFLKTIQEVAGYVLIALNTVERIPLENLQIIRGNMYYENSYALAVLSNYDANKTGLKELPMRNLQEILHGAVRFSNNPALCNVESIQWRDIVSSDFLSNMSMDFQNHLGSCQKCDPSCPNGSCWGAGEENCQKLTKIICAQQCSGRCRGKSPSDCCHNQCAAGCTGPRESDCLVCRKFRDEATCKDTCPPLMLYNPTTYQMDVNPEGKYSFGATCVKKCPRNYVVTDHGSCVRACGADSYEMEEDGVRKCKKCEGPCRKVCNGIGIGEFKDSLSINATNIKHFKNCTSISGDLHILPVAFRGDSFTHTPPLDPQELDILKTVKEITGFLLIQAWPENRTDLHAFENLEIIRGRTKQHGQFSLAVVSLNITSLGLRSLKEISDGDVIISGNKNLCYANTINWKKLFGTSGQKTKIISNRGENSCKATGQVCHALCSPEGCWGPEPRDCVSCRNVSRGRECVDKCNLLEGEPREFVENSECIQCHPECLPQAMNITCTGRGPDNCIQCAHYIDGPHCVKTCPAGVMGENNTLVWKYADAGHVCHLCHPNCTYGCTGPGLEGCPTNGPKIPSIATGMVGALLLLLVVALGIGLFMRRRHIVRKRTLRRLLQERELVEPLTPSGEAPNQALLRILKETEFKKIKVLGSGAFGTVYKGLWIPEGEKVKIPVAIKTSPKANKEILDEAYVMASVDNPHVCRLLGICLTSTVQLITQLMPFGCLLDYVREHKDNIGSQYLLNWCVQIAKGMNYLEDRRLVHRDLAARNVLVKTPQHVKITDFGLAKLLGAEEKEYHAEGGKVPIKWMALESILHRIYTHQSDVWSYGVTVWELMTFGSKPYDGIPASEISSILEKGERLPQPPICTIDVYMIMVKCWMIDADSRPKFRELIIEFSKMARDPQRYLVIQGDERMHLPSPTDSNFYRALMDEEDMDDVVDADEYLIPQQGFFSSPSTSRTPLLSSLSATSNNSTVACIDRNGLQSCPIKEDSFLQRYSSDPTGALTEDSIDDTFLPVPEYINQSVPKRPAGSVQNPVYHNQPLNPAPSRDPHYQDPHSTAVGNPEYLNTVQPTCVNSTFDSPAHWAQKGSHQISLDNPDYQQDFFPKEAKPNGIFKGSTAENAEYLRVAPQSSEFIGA
T1 sequence (P00533 25-1210 T790M/C797S/L858R): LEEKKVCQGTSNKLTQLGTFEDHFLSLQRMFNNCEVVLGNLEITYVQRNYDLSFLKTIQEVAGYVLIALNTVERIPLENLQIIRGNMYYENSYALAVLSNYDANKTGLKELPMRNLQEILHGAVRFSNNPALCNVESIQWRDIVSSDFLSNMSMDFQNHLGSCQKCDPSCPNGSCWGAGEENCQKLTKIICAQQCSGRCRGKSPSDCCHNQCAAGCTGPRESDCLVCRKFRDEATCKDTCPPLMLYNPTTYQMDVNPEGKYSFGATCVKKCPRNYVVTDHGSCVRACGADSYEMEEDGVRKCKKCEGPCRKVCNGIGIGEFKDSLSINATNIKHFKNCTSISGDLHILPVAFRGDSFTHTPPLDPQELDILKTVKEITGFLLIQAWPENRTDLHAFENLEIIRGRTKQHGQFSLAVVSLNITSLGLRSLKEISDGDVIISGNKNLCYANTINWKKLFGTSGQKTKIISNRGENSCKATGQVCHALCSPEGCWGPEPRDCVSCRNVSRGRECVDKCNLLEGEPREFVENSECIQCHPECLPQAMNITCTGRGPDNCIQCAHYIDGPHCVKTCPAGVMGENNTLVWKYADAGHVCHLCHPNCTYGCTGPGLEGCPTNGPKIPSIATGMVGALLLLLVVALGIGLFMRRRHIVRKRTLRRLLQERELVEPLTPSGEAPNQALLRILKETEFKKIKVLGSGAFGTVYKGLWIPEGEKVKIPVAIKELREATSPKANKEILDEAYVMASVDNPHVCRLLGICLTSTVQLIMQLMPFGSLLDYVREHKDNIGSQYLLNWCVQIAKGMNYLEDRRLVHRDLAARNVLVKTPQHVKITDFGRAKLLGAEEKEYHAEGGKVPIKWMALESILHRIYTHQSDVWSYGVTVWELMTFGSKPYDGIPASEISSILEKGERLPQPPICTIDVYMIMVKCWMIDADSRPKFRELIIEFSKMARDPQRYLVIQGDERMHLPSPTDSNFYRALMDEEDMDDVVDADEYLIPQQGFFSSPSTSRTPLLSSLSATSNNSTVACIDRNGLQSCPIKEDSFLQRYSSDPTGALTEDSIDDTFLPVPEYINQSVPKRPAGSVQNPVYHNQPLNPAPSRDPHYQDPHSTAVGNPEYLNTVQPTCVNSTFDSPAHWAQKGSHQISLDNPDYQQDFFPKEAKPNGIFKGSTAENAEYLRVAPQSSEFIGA
T2 sequence (P00533 25-1210 T790M/L858R): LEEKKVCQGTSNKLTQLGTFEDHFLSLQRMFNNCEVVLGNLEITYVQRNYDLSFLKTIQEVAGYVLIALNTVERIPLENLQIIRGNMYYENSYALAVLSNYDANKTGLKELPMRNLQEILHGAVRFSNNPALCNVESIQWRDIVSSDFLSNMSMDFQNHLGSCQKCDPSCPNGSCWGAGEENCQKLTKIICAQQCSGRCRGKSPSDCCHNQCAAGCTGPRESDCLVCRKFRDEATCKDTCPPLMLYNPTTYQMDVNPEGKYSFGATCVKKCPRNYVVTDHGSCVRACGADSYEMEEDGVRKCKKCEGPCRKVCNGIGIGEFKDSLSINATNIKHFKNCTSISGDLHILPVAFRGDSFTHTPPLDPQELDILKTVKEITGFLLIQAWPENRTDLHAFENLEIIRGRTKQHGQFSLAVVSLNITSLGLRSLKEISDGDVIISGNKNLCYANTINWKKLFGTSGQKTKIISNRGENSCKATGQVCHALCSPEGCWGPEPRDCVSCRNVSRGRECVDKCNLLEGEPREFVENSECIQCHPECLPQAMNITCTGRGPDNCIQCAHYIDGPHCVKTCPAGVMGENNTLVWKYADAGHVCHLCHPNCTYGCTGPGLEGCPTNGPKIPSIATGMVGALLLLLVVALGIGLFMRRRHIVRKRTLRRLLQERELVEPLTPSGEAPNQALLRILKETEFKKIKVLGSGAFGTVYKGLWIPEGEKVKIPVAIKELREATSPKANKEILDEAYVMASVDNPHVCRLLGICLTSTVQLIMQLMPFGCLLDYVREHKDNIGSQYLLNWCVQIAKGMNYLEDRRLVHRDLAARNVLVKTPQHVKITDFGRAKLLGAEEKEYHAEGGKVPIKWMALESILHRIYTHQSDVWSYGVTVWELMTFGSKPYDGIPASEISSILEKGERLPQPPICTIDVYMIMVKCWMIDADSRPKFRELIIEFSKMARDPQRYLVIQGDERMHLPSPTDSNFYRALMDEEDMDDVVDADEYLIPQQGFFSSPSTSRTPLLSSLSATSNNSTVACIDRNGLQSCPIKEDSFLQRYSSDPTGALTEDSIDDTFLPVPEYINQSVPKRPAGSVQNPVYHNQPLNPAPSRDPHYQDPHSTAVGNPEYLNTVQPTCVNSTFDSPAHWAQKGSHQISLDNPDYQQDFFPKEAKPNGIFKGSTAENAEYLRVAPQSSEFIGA

As for `CCc1cc(Nc2ncc(Br)c(Nc3ccc4nccnc4c3P(C)(C)=O)n2)c(OC)cc1N1CCC(N2CCN(C[C@@H]3CCN(c4ccc(C5CCC(=O)NC5=O)cc4)C3)CC2)CC1` (stereo partly drawn) [Example 221, 3-(4-((S)-3-((4-(1-(4-((5-bromo-4-((5-(dimethylphosphoryl)quinoxalin-6-yl)amino)pyrimidin-2-yl)amino)-2-ethyl-5-methoxyphenyl)piperidin-4-yl)piperazin-1-yl)methyl)pyrrolidin-1-yl)phenyl)piperidine-2,6-dione], the “DTC Dmax (%)” value in assay [1] is on record as 87.37%. The DC50 (usually the midpoint of the concentration-degradation curve) in assay [1] was 15.7 nM; in assay [2], 36.1 nM; in assay [3], 6.46 nM; at EGFR (HCC827 cells), 5.15 nM. For the same molecule, the Dmax (commonly the greatest extent of degradation seen) is 84.2% in assay [2], 61% in assay [3] and 75.3% on EGFR (HCC827 cells).
Regarding `CCc1cc(Nc2ncc(Br)c(Nc3ccc4nccnc4c3P(C)(C)=O)n2)c(OC)cc1N1CCC(N2CCN(C(=O)C3CCN(c4ccc5c(c4)C(=O)N(C4CCC(=O)NC4=O)C5=O)CC3)CC2)CC1` (centres unmarked) [Example 67, 5-(4-(4-(1-(4-((5-bromo-4-((5-(dimethylphosphoryl)quinoxalin-6-yl)amino)pyrimidin-2-yl)amino)-2-ethyl-5-methoxyphenyl)piperidin-4-yl)piperazine-1-carbonyl)piperidin-1-yl)-2-(2,6-dioxopiperidin-3-yl)isoindoline-1,3-dione], the “DTC Dmax (%)” value in assay [1] turned out to be 94.22%. In addition, the DC50 in assay [1] was found to be 4.71 nM; in assay [2], 13.3 nM; in assay [3], 9.74 nM; on EGFR (HCC827 cells) it was 6.2 nM. Also, the values for the Dmax (in assay [2]; in assay [3]; at EGFR (HCC827 cells)) were 87.9%, 74.8% and 76.7%, respectively.
`CCc1cc(Nc2ncc(Br)c(Nc3ccc4nccnc4c3P(C)(C)=O)n2)c(OC)cc1N1CCC(N2CCN(C(=O)C3CN(c4ccc5c(c4)C(=O)N(C4CCC(=O)NC4=O)C5=O)C3)CC2)CC1` (centres unmarked) [Example 64, 5-(3-(4-(1-(4-((5-bromo-4-((5-(dimethylphosphoryl)quinoxalin-6-yl)amino)pyrimidin-2-yl)amino)-2-ethyl-5-methoxyphenyl)piperidin-4-yl)piperazine-1-carbonyl)azetidin-1-yl)-2-(2,6-dioxopiperidin-3-yl)isoindoline-1,3-dione]: the “DTC Dmax (%)” value in assay [1] is reported as 90.07%. For the same molecule, the DC50 turned out to be 4.85 nM in assay [1], 1.72 nM in assay [2], 3.12 nM in assay [3] and 2.06 nM on EGFR (HCC827 cells). The figures for the Dmax (in assay [2]; in assay [3]; at EGFR (HCC827 cells)) were 85.4%, 85.8% and 75.7%, respectively.
`CCc1cc(Nc2ncc(Br)c(Nc3ccc4nccnc4c3P(C)(C)=O)n2)c(OC)cc1N1CCC(N2CCN(C[C@H]3CCN(c4ccc(C5CCC(=O)NC5=O)cc4)C3)CC2)CC1` (stereo partly drawn) [Example 220, 3-(4-((R)-3-((4-(1-(4-((5-bromo-4-((5-(dimethylphosphoryl)quinoxalin-6-yl)amino)pyrimidin-2-yl)amino)-2-ethyl-5-methoxyphenyl)piperidin-4-yl)piperazin-1-yl)methyl)pyrrolidin-1-yl)phenyl)piperidine-2,6-dione]: in assay [1], the “DTC Dmax (%)” value turned out to be 86%. The half-maximal degradation concentration (DC50) in assay [1] turned out to be 18.2 nM; in assay [2], 43.2 nM; in assay [3], 8.8 nM; on EGFR (HCC827 cells), 5.1 nM. Besides, the Dmax in assay [2] was determined as 88.8%; in assay [3] it was 85.6%; on EGFR (HCC827 cells), 77.7%.
As to `CCc1cc(Nc2ncc(Br)c(Nc3ccc4nccnc4c3P(C)(C)=O)n2)c(OC)cc1N1CCC(N2CCN(C(=O)CC3CN(c4ccc5c(c4)C(=O)N(C4CCC(=O)NC4=O)C5=O)C3)CC2)CC1` (centres unmarked) [Example 222, 5-(3-(2-(4-(1-(4-((5-bromo-4-((5-(dimethylphosphoryl)quinoxalin-6-yl)amino)pyrimidin-2-yl)amino)-2-ethyl-5-methoxyphenyl)piperidin-4-yl)piperazin-1-yl)-2-oxoethyl)azetidin-1-yl)-2-(2,6-dioxopiperidin-3-yl)isoindoline-1,3-dione], the “DTC Dmax (%)” value in assay [1] is 83.72%. In addition, the DC50 in assay [1] was 3.41 nM; in assay [2] it was 21.3 nM; in assay [3], 7.03 nM; on EGFR (HCC827 cells), 3.71 nM. Besides, the maximal degradation (Dmax) worked out at 75.6% in assay [2], 69% in assay [3] and 78.5% on EGFR (HCC827 cells).
Consider `CCc1cc(Nc2ncc(Br)c(Nc3ccc4nccnc4c3P(C)(C)=O)n2)c(OC)cc1N1CCC(N2CCN(C(=O)C3CCN(c4cc(F)c(C5CCC(=O)NC5=O)c(F)c4)CC3)CC2)CC1` (centres unmarked) [Example 254, 3-(4-(4-(4-(1-(4-((5-bromo-4-((5-(dimethylphosphoryl)quinoxalin-6-yl)amino)pyrimidin-2-yl)amino)-2-ethyl-5-methoxyphenyl)piperidin-4-yl)piperazine-1-carbonyl)piperidin-1-yl)-2,6-difluorophenyl)piperidine-2,6-dione], for which the “DTC Dmax (%)” value in assay [1] worked out at 92.55%. Besides, the DC50 was found to be 4.98 nM in assay [1], 15.9 nM in assay [2], 3.61 nM in assay [3] and 3.14 nM at EGFR (HCC827 cells). Also, the Dmax in assay [2] is 84.7%; in assay [3], 75.5%; on EGFR (HCC827 cells), 77.7%.
On to `CCc1cc(Nc2ncc(Br)c(Nc3ccc4nccnc4c3P(C)(C)=O)n2)c(OC)cc1N1CCC(N2CCN(CCc3cccc4c3n(C)c(=O)n4C3CCC(=O)NC3=O)CC2)CC1` (centres unmarked) [Example 318, 3-(4-(2-(4-(1-(4-((5-bromo-4-((5-(dimethylphosphoryl)quinoxalin-6-yl)amino)pyrimidin-2-yl)amino)-2-ethyl-5-methoxyphenyl)piperidin-4-yl)piperazin-1-yl)ethyl)-3-methyl-2-oxo-2,3-dihydro-1H-benzo[d]imidazol-1-yl)piperidine-2,6-dione], for which the “DTC Dmax (%)” value in assay [1] is listed as 91.99%. Moreover, the half-maximal degradation concentration (DC50) was determined as 3.1 nM in assay [1], 4.4 nM in assay [2], 2.14 nM in assay [3] and 0.601 nM on EGFR (HCC827 cells). For the same molecule, the Dmax in assay [2] was found to be 93.3%; in assay [3], 88.8%; at EGFR (HCC827 cells), 85.2%.
As for `CCc1cc(Nc2ncc(Br)c(Nc3ccc4nccnc4c3P(C)(C)=O)n2)c(OC)cc1N1CCC(N2CCN(CC3CN(c4ccc5c(c4)CN(C4CCC(=O)NC4=O)C5=O)C3)CC2)CC1` (centres unmarked) [Example 160, 3-(5-(3-((4-(1-(4-((5-bromo-4-((5-(dimethylphosphoryl)quinoxalin-6-yl)amino)pyrimidin-2-yl)amino)-2-ethyl-5-methoxyphenyl)piperidin-4-yl)piperazin-1-yl)methyl)azetidin-1-yl)-1-oxoisoindolin-2-yl)piperidine-2,6-dione], the “DTC Dmax (%)” value in assay [1] came to 94.14%. The DC50 in assay [1] stood at 6.95 nM; in assay [2], 18.1 nM; in assay [3] it was 3.07 nM; on EGFR (HCC827 cells), 2.69 nM. In addition, the Dmax in assay [2] worked out at 92.9%; in assay [3], 76.8%; at EGFR (HCC827 cells), 81.7%.
Take `CCc1cc(Nc2ncc(Br)c(Nc3ccc4nccnc4c3P(C)(C)=O)n2)c(OC)cc1N1CCC(N2CCN(CC3CCN(c4ccc(C5CCC(=O)NC5=O)cc4)C3)CC2)CC1` (centres unmarked) [Example 168, 3-(4-(3-((4-(1-(4-((5-bromo-4-((5-(dimethylphosphoryl)quinoxalin-6-yl)amino)pyrimidin-2-yl)amino)-2-ethyl-5-methoxyphenyl)piperidin-4-yl)piperazin-1-yl)methyl)pyrrolidin-1-yl)phenyl)piperidine-2,6-dione]: the “DTC Dmax (%)” value in assay [1] is given as 88.5%. Besides, the DC50 in assay [1] amounted to 22.4 nM; in assay [2] it was 47 nM; in assay [3], 1.61 nM; on EGFR (HCC827 cells) it was 4.85 nM. In addition, the figures for the Dmax (in assay [2]; in assay [3]; at EGFR (HCC827 cells)) were 86.4%, 62.4% and 81.2%, respectively.
Consider `CCc1cc(Nc2ncc(Br)c(Nc3ccc4nccnc4c3P(C)(C)=O)n2)c(OC)cc1N1CCC(N2CCN(C(=O)[C@@H]3CCN(c4cc(F)c(C5CCC(=O)NC5=O)c(F)c4)C3)CC2)CC1` (stereo partly drawn) [Example 255, 3-(4-((R)-3-(4-(1-(4-((5-bromo-4-((5-(dimethylphosphoryl)quinoxalin-6-yl)amino)pyrimidin-2-yl)amino)-2-ethyl-5-methoxyphenyl)piperidin-4-yl)piperazine-1-carbonyl)pyrrolidin-1-yl)-2,6-difluorophenyl)piperidine-2,6-dione], for which, in assay [1], the “DTC Dmax (%)” value turned out to be 96.33%. Moreover, the DC50 in assay [1] amounted to 5.62 nM; in assay [2], 17.3 nM; in assay [3], 3.27 nM; at EGFR (HCC827 cells), 2.87 nM. Moreover, the Dmax in assay [2] was determined as 83.4%; in assay [3] it was 90.2%; at EGFR (HCC827 cells), 78.5%.
